Laboratory results published in PubChem BioAssay (NCI).
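Grown in 96-well plates, cells were treated for 48 hours with each compound at five concentrations. Insufficient inhibition: endpoint recorded as highest concentration tested. Here, GI50 denotes the concentration required for 50% inhibition of growth. TGI marks complete inhibition of growth.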

Columns and labels:
Assay in all cases: growth of human tumour cells (NCI), 48 h
HCT-116 colon = test system: HCT-116 colon
UACC-257 melanoma = test system: UACC-257 melanoma
EKVX NSCLC = test system: EKVX NSCLC
HCT-15 colon = test system: HCT-15 colon
HS 578T breast = test system: HS 578T breast
SN12C renal = test system: SN12C renal
A498 renal = test system: A498 renal
NCI-H23 lung = test system: NCI-H23 lung
HOP-92 NSCLC = test system: HOP-92 NSCLC
SK-MEL-2 melanoma = test system: SK-MEL-2 melanoma
RPMI-8226 leukemia = test system: RPMI-8226 leukemia
ACHN renal = test system: ACHN renal
SK-MEL-5 melanoma = test system: SK-MEL-5 melanoma
K-562 leukemia = test system: K-562 leukemia
NCI/ADR-RES ovarian = test system: NCI/ADR-RES ovarian
MDA-MB-468 breast = test system: MDA-MB-468 breast
UACC-62 melanoma = test system: UACC-62 melanoma
CAKI-1 renal = test system: CAKI-1 renal
HT29 colon = test system: HT29 colon
NCI-H460 lung = test system: NCI-H460 lung
HCC-2998 colon = test system: HCC-2998 colon
MALME-3M melanoma = test system: MALME-3M melanoma
M14 melanoma = test system: M14 melanoma
MOLT-4 leukemia = test system: MOLT-4 leukemia
SF-539 CNS = test system: SF-539 CNS
SNB-75 CNS = test system: SNB-75 CNS
OVCAR-5 ovarian = test system: OVCAR-5 ovarian
CCRF-CEM leukemia = test system: CCRF-CEM leukemia
SF-268 CNS = test system: SF-268 CNS
MDA-MB-435 = test system: MDA-MB-435

NS(=O)(=O)c1ccc(Nc2nc(N/N=C/c3cc(Br)c(O)c(Br)c3)nc(Nc3ccccc3)n2)cc1
GI50 (HCT-116 colon): 17.7 µM
TGI (HCT-116 colon): 38.9 µM
GI50 (UACC-257 melanoma): 20.6 µM
TGI (UACC-257 melanoma): 47.9 µM
GI50 (EKVX NSCLC): 21.4 µM
TGI (EKVX NSCLC): 69.2 µM
GI50 (HCT-15 colon): 32.3 µM
TGI (HCT-15 colon): > 100 µM
GI50 (HS 578T breast): 7.76 µM
TGI (HS 578T breast): 81.3 µM
GI50 (SN12C renal): 15.6 µM
TGI (SN12C renal): 32.1 µM
GI50 (A498 renal): 13.3 µM
TGI (A498 renal): 36.6 µM
GI50 (NCI-H23 lung): 20.9 µM
TGI (NCI-H23 lung): 50.1 µM
GI50 (HOP-92 NSCLC): 26.7 µM
TGI (HOP-92 NSCLC): 81.2 µM
GI50 (SK-MEL-2 melanoma): 15.7 µM
TGI (SK-MEL-2 melanoma): 38.1 µM
GI50 (RPMI-8226 leukemia): 22.8 µM
TGI (RPMI-8226 leukemia): 93.5 µM
GI50 (ACHN renal): 24.8 µM
TGI (ACHN renal): 93.8 µM
GI50 (SK-MEL-5 melanoma): 14.9 µM
TGI (SK-MEL-5 melanoma): 28.6 µM
GI50 (K-562 leukemia): 23.4 µM
TGI (K-562 leukemia): > 100 µM
GI50 (NCI/ADR-RES ovarian): > 100 µM
TGI (NCI/ADR-RES ovarian): > 100 µM
GI50 (MDA-MB-468 breast): 2.94 µM
TGI (MDA-MB-468 breast): 15.5 µM
GI50 (UACC-62 melanoma): 14.5 µM
TGI (UACC-62 melanoma): 28.3 µM
GI50 (CAKI-1 renal): 24 µM
TGI (CAKI-1 renal): 85.7 µM
GI50 (HT29 colon): 19.6 µM
TGI (HT29 colon): 49.1 µM
GI50 (NCI-H460 lung): 19.6 µM
TGI (NCI-H460 lung): 60.1 µM
GI50 (HCC-2998 colon): 14.8 µM
TGI (HCC-2998 colon): 29.2 µM
GI50 (MALME-3M melanoma): 14.7 µM
TGI (MALME-3M melanoma): 34.8 µM
GI50 (M14 melanoma): 18.8 µM
TGI (M14 melanoma): 45.7 µM
GI50 (MOLT-4 leukemia): 19.7 µM
TGI (MOLT-4 leukemia): 52.3 µM
GI50 (SF-539 CNS): 17.9 µM
TGI (SF-539 CNS): 41.3 µM
GI50 (SNB-75 CNS): 18.6 µM
TGI (SNB-75 CNS): 61.7 µM
GI50 (OVCAR-5 ovarian): 22.7 µM
TGI (OVCAR-5 ovarian): 62.6 µM
GI50 (CCRF-CEM leukemia): 11.1 µM
TGI (CCRF-CEM leukemia): 41.6 µM
GI50 (SF-268 CNS): 19.9 µM
TGI (SF-268 CNS): 58.6 µM
GI50 (MDA-MB-435): 17.8 µM
